Results from patent publication US10774087B2, “Sulfonamide derivative having coumarin skeleton” (Daiichi Sankyo Company, Limited, priority 2016, dated 2020).
Counter-ions that a name gives are not always drawn. Like-named read-outs stand apart in the source and are kept apart here.

Tests used:
MDA-MB-231 luc cells = experiment: Growth inhibition test using MDA-MB-231 luc cells; format: cell-based, human
[1] = target: T1, recombinant MTHFD2 protein (Homo sapiens, UniProt P13995); experiment: MTHFD2 dehydrogenase assay; format: biochemical
T1 construct: containing recombinant MTHFD2 protein
T1 sequence (P13995 36-350): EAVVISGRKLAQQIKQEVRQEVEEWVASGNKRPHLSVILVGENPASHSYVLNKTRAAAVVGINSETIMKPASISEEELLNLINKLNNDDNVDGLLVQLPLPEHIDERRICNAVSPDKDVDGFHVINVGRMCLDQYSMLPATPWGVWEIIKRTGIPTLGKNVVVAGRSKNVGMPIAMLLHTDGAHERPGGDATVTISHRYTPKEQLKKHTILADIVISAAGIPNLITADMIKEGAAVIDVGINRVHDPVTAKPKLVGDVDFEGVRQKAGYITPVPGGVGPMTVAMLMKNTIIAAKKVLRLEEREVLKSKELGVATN

[2] = target: T2, recombinant MTHFD1 protein (dehydrogenase domain, alone) (Homo sapiens, UniProt P11586); experiment: MTHFD1 dehydrogenase assay; format: biochemical
T2 construct: recombinant MTHFD1 protein (dehydrogenase domain, alone)
T2 sequence (P11586 2-291 limits assumed): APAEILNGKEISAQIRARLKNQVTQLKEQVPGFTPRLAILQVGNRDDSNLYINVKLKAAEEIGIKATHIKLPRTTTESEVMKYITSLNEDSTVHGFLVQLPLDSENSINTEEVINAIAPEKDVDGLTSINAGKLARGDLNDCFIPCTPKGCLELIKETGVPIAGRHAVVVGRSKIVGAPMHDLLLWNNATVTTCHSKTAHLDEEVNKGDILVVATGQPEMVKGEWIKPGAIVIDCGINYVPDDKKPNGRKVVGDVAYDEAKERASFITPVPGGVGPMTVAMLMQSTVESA

[3] = 200 μM NAD, room temperature 30 minutes, absorbance 355 nm
[4] = 165.4 μM NADP, room temperature 30 minutes, absorbance 355 nm
[5] = human breast cancer MDA-MB-231 luc, Day 3, cell-titer Glo, Day 0 value subtracted, read-out: GI50

SMILES | GI50 (MDA-MB-231 luc cells; Homo sapiens, MDA-MB-231) | IC50 [1, 3] | IC50 [2, 4] | GI50 (MDA-MB-231 luc cells; [5]) | IC50 [2] | IC50 [1]
Cc1c(N2CCN(C)CC2)ccc2c3c(c(=O)oc12)CN(C(=O)c1ccc(NS(C)(=O)=O)c(Cl)c1)CC3 [Example 1, N-(2-chloro-4-{[7-methyl-8-(4-methylpiperazin-1-yl)-5-oxo-1,5-dihydro-2H-chromeno[3,4-c]pyridin-3(4H)-yl]carbonyl}phenyl)methanesulfonamide] | 940 nM | 48 nM |  |  |  | 
Cc1c(N2CCN(C)CC2)ccc2c3c(c(=O)oc12)CN(C(=O)c1ccc(NS(=O)(=O)C2CC2)c(Cl)c1)CC3 [Example 2, N-(2-Chloro-4-{[7-methyl-8-(4-methylpiperazin-1-yl)-5-oxo-1,5-dihydro-2H-chromeno[3,4-c]pyridin-3(4H)-yl]carbonyl}phenyl)cyclopropanesulfonamide] |  | 28 nM | 2200 nM | 1100 nM |  | 
Cc1c(N2CCN(C)CC2)ccc2c3c(c(=O)oc12)CN(C(=O)c1ccc(NS(C)(=O)=O)c(OC(F)(F)F)c1)CC3 [Example 3, N-[4-{[7-Methyl-8-(4-methylpiperazin-1-yl)-5-oxo-1,5-dihydro-2H-chromeno[3,4-c]pyridin-3(4H)-yl]carbonyl}-2-(trifluoromethoxy)phenyl]methanesulfonamide] | 380 nM | 21 nM |  |  |  | 
Cc1c(N2CCN(C)[C@@H](C)C2)ccc2c3c(c(=O)oc12)CN(C(=O)c1ccc(NS(C)(=O)=O)c(Cl)c1)CC3 [Example 4, N-[2-Chloro-4-({8-[(3S)-3,4-dimethylpiperazin-1-yl]-7-methyl-5-oxo-1,5-dihydro-2H-chromeno[3,4-c]pyridin-3(4H)-yl}carbonyl)phenyl]methanesulfonamide] | 200 nM | 9.3 nM |  |  |  | 
Cc1c(N2CCN(C)[C@@H](C)C2)ccc2c3c(c(=O)oc12)CN(C(=O)c1ccc(NS(C)(=O)=O)c(OC(F)(F)F)c1)CC3 [Example 5, N-[4-({8-[(3S)-3,4-Dimethylpiperazin-1-yl]-7-methyl-5-oxo-1,5-dihydro-2H-chromeno[3,4-c]pyridin-3(4H)-yl}carbonyl)-2-(trifluoromethoxy)phenyl]methanesulfonamide] | 140 nM |  |  |  |  | 
Cc1c(N2CCN(C)[C@@H](C)C2)ccc2c3c(c(=O)oc12)CN(C(=O)c1ccc(NS(C)(=O)=O)c(C(F)(F)F)c1)CC3 [Example 6, N-[4-({8-[(3S)-3,4-Dimethylpiperazin-1-yl]-7-methyl-5-oxo-1,5-dihydro-2H-chromeno[3,4-c]pyridin-3(4H)-yl}carbonyl)-2-(trifluoromethyl)phenyl]methanesulfonamide] | 210 nM |  |  |  | 1500 nM | 6.4 nM
Cc1c(N2CCN(C)[C@@H](C)C2)cc(C)c2c3c(c(=O)oc12)CN(C(=O)c1ccc(NS(C)(=O)=O)c(Cl)c1)CC3 [Example 7, N-[2-Chloro-4-({8-[(3S)-3,4-dimethylpiperazin-1-yl]-7,10-dimethyl-5-oxo-1,5-dihydro-2H-chromeno[3,4-c]pyridin-3(4H)-yl}carbonyl)phenyl]methanesulfonamide] | 100 nM |  |  |  | 560 nM | 4.4 nM
Cc1c(N2CCN(C)[C@@H](C)C2)cc(C)c2c3c(c(=O)oc12)CN(C(=O)c1ccc(NS(C)(=O)=O)c(OC(F)(F)F)c1)CC3 [Example 8, N-[4-({8-[(3S)-3,4-Dimethylpiperazin-1-yl]-7,10-dimethyl-5-oxo-1,5-dihydro-2H-chromeno[3,4-c]pyridin-3(4H)-yl}carbonyl)-2-(trifluoromethoxy)phenyl]methanesulfonamide] | 45 nM |  |  |  | 200 nM | 2.6 nM
CCS(=O)(=O)Nc1ccc(C(=O)N2CCc3c(c(=O)oc4c(C)c(N5CCN(C)[C@@H](C)C5)ccc34)C2)cc1OC(F)(F)F [Example 9, N-[4-({8-[(3S)-3,4-Dimethylpiperazin-1-yl]-7-methyl-5-oxo-1,5-dihydro-2H-chromeno[3,4-c]pyridin-3(4H)-yl}carbonyl)-2-(trifluoromethoxy)phenyl]ethanesulfonamide] | 120 nM |  |  |  | 400 nM | 4.7 nM
CCS(=O)(=O)Nc1ccc(C(=O)N2CCc3c(c(=O)oc4c(C)c(N5CCN(C)[C@@H](C)C5)cc(C)c34)C2)cc1OC(F)(F)F [Example 10, N-[4-({8-[(3S)-3,4-Dimethylpiperazin-1-yl]-7,10-dimethyl-5-oxo-1,5-dihydro-2H-chromeno[3,4-c]pyridin-3(4H)-yl}carbonyl)-2-(trifluoromethoxy)phenyl]ethanesulfonamide] |  | 2.7 nM | 220 nM | 17 nM |  | 
CC[C@H]1CN(c2ccc3c4c(c(=O)oc3c2C)CN(C(=O)c2ccc(NS(C)(=O)=O)c(OC(F)(F)F)c2)CC4)CCN1C [Example 11, N-[4-({8-[(3S)-3-Ethyl-4-methylpiperazin-1-yl]-7-methyl-5-oxo-1,5-dihydro-2H-chromeno[3,4-c]pyridin-3(4H)-yl}carbonyl)-2-(trifluoromethoxy)phenyl]methanesulfonamide] | 120 nM |  |  |  | 360 nM | 5.1 nM
Cc1c(N2CCN(C)C(C)(C)C2)ccc2c3c(c(=O)oc12)CN(C(=O)c1ccc(NS(C)(=O)=O)c(OC(F)(F)F)c1)CC3 [Example 12, N-[4-{[7-Methyl-5-oxo-8-(3,3,4-trimethylpiperazin-1-yl)-1,5-dihydro-2H-chromeno[3,4-c]pyridin-3(4H)-yl]carbonyl}-2-(trifluoromethoxy)phenyl]methanesulfonamide] | 66 nM |  |  |  | 710 nM | 75 nM
Cc1c(N2CCN[C@@H](C)C2)ccc2c3c(c(=O)oc12)CN(C(=O)c1ccc(NS(C)(=O)=O)c(OC(F)(F)F)c1)CC3 [Example 13, N-[4-({7-Methyl-8-[(3S)-3-methylpiperazin-1-yl]-5-oxo-1,5-dihydro-2H-chromeno[3,4-c]pyridin-3(4H)-yl}carbonyl)-2-(trifluoromethoxy)phenyl]methanesulfonamide hydrochloride] | 260 nM | 7.8 nM | 900 nM |  |  | 
Cc1c(N2C[C@@H](C)N(C)[C@@H](C)C2)ccc2c3c(c(=O)oc12)CN(C(=O)c1ccc(NS(C)(=O)=O)c(Cl)c1)CC3 [Example 14, N-[2-Chloro-4-({7-methyl-5-oxo-8-[(3R,5S)-3,4,5-trimethylpiperazin-1-yl]-1,5-dihydro-2H-chromeno[3,4-c]pyridin-3(4H)-yl}carbonyl)phenyl]methanesulfonamide] | 780 nM | 37 nM |  |  |  | 
